# Counter-ions that a name gives are not always drawn.
# What was measured:
# Format in all cases: biochemical
# [1] = target: T1, hyaluronidase type IV-S from a bovine testis (Bos taurus, UniProt Q2YDK3); assay: Morgan-Elson colorimetric hyaluronidase assay
# T1 construct: gene SPAM1
# T1 sequence (Q2YDK3 36-553): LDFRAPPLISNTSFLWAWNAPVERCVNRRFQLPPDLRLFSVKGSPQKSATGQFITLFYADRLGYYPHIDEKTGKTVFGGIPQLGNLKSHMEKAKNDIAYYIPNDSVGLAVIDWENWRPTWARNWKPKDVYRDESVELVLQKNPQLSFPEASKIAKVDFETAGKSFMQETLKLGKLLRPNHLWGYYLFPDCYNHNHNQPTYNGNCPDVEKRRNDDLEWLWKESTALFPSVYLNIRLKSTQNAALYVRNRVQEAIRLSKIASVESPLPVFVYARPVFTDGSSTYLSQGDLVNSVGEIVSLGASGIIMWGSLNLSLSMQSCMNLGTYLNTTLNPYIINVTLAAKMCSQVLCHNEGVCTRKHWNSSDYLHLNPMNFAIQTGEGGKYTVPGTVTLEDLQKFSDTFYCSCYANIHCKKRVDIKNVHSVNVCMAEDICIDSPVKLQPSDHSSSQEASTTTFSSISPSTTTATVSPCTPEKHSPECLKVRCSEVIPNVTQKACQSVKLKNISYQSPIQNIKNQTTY
# [2] = target: T1, hyaluronidase type IV-S from a bovine testis; assay: Morgan-Elson colorimetric hyaluronidase assay; remark: listed apart in the source
# [3] = target: T1, hyaluronidase type IV-S from a bovine testis; assay: Morgan-Elson colorimetric hyaluronidase assay, positive control
IC50 [1],SMILES,Morgan-Elson colorimetric hyaluronidase assay [2],further results
22 µM,"CCCCCCCCCCCCCCCC(=O)OC[C@H](O)[C@H]1OC(=O)C(O[C@H]2O[C@H](CO)[C@@H](O)[C@H](O)[C@H]2O)=C1O [6-sPalm-AA-2G, 2-O-α-D-Glucopyranosyl-6-O-hexadecanoyl-L-ascorbic acid]",,
,CCCCCCC(CCCCCC)C(=O)OC[C@H](O)[C@H]1OC(=O)C(O[C@H]2O[C@H](CO)[C@@H](O)[C@H](O)[C@H]2O)=C1O [6-bMyri-AA-2G],6-bMyri-AA-2G and 6-bPalm-AA-2G significantly inhibited the activity more than 6-bDode-AA-2G,
,CCCCCCCC(CCCCCCC)C(=O)OC[C@H](O)[C@H]1OC(=O)C(O[C@H]2O[C@H](CO)[C@@H](O)[C@H](O)[C@H]2O)=C1O [6-bPalm-AA-2G],6-bMyri-AA-2G and 6-bPalm-AA-2G significantly inhibited the activity more than 6-bDode-AA-2G,
,"O=C(O)c1cc(=O)c2c(OCC(O)COc3cccc4oc(C(=O)O)cc(=O)c34)cccc2o1 [DSCG, Cromolyn sodium salt]",,"Morgan-Elson colorimetric hyaluronidase assay, positive control [3]: Cromolyn sodium salt (DSCG), which is used clinically as an anti-allergy drug, was used as a positive control."
194 µM,"CCCCCCCCCCCCCCCC(=O)OC[C@H](O)[C@H]1OC(=O)C(O)=C1O [6-Palm-AA, 6-O-palmitoyl-L-AA]",,
25 µM,"CCCCCCCCCCCCCCCC(=O)OC[C@H](O)[C@H]1OC(=O)C(O[C@@H]2O[C@H](CO)[C@@H](O)[C@H](O)[C@H]2O)=C1O [6-sPalm-AA-2βG, 2-O-β-D-glucopyranosyl-6-O-hexadecanoyl-L-ascorbic acid]",,
,CCCCCCCCCCCCCC(=O)OC[C@H](O)[C@H]1OC(=O)C(O[C@H]2O[C@H](CO)[C@@H](O)[C@H](O)[C@H]2O)=C1O [6-sMyri-AA-2G],6-sMyri-AA-2G and 6-sPalm-AA-2G significantly inhibited the activity more than 6-sDode-AA-2G,

# Reference: paper PMC6149712, “Anti-Allergic Activity of Monoacylated Ascorbic Acid 2-Glucosides” (Molecules : A Journal of Synthetic Chemistry and Natural …, 2017)
